From patent publication US20070219214A1, “Dual NK2/NK3-antagonists, pharmaceutical compositions comprising them, and processes for their preparation” (Solvay pharmaceuticals GmbH, priority 2006, published 2007)
Read-outs that look alike come from different tables or passages of the source.

What was measured:
human NK1-receptor [1] = molecular target: T1, human NK1-receptor (Homo sapiens, UniProt P25103); experiment: Binding potency of the test substances to NK1-receptors in vitro ([3H]-Substance P displacement); details: human NK1-receptor in CHO cell membranes, average of at least three measurements
Description: 1. Determination of the Binding Potency of the Test Substances to NK1-Receptors in Vitro
The affinity of test compounds for NK1-receptors can be determined by measuring the ability of the test compound to displace a radiolabeled ligand from its specific binding site. The tests were performed at Solvay Pharmaceuticals, Weesp, The Netherlands.
Separation of bound radioactivity from free radioactivity was done by filtration through glass fiber filters (Packard GF/B) with several washings with ice-cold buffer solution. Bound radioactivity was measured with a liquid scintillation counter (total binding).
The inhibition constant (Ki) was calculated according to the Cheng-Prusoff equation, and listed as its negative logarithmic value (pKi). The pKi value describes the potency of a test compound to bind to a receptor.

human NK1-receptor [2] = molecular target: T1, human NK1-receptor; experiment: Functional cellular test, Ca2+ measurements using FLIPR for NK1 activity; assay type: cell-based; design: expressed in transfected cells; host or cells: CHO fibroblast cells
Source text: The NK receptor is coupled to Gq.
All steps were done under sterile conditions.

human NK2-receptor [3] = molecular target: T2, human NK2-receptor (Homo sapiens, UniProt P21452); experiment: Functional cellular test, Ca2+ measurements using FLIPR for NK2 activity;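 further: CHO cells stably expressing the human receptor, loaded with a calcium dye, antagonist inhibition of ligand-evoked intracellular calcium rise read as peak fluorescence change on FLIPR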
T2 sequence (P21452 1-398): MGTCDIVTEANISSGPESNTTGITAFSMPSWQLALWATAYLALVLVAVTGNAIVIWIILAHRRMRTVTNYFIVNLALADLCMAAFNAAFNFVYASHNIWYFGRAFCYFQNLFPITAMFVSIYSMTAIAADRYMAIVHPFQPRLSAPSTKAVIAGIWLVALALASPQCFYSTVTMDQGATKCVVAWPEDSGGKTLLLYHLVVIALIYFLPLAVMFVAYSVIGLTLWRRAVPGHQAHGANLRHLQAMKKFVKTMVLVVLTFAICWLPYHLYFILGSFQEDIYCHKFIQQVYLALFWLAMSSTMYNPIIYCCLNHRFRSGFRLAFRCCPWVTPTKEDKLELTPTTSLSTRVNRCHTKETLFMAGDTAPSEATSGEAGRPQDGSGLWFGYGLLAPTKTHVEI

human NK2-receptor [4] = molecular target: T2, human NK2-receptor; experiment: Binding potency of the test substances to NK2-receptors in vitro ([3H]-SR 48968 displacement); design: expressed in transfected cells; host or cells: CHO cells (membrane preparation); details: human NK2-receptor in CHO cell membranes, [3H]-SR 48968 (saredutant); average of at least three measurements; read-out: pKi, binding potency to NK2-receptors (converted)
Source text: 2. Determination of the Binding Potency of the Test Substances to NK2-Receptors in Vitro
The affinity of test compounds for NK2-receptors can be determined by measuring the ability of the test compound to displace a radiolabeled ligand from its specific binding site.
(§1) The radiolabel used in this assay is [^3H]-SR 48968 (saredutant). Receptors were obtained from membrane preparations of CHO-cells (Chinese Hamster Ovary cells), in which the human NK2-receptor was stably expressed. Membranes were incubated with [^3H]-saredutant in the absence or presence of test compounds at different concentrations, diluted in a buffer system. Separation of bound radioactivity from free radioactivity was done by filtration through glass fiber filters (Packard GF/B) with several washings with ice-cold buffer solution. Bound radioactivity was measured with a liquid scintillation counter (total binding). Unspecific binding was determined by incubation with an excess (0.1 μmol/l) of unlabeled saredutant. Specific binding is obtained by subtracting the unspecific binding from the total binding.
(§2) Radioactivity of the specific binding was plotted against the concentration of the test compound and IC50 values, i.e. the concentration of test compound by which 50% of the radioligand is displaced, were calculated. The inhibition constant (Ki) was calculated according to the Cheng-Prusoff equation, and listed as its negative logarithmic value (pKi). The pKi value describes the potency of a test compound to bind to a receptor.
(§3) The average result of all measurements is listed above.

human NK3 receptor [5] = molecular target: T3, human NK3 receptor (Homo sapiens, UniProt P29371); experiment: Binding potency of the test substances to NK3-receptors in vitro ([3H]-SR 142801 displacement); design: expressed in transfected cells; host or cells: CHO cells (membrane preparation); details: human NK3-receptor in CHO cell membranes, [3H]-SR 142801 (osanetant); average of at least three measurements; read-out: pKi, binding potency to NK3-receptors (converted)
T3 sequence (P29371 1-465): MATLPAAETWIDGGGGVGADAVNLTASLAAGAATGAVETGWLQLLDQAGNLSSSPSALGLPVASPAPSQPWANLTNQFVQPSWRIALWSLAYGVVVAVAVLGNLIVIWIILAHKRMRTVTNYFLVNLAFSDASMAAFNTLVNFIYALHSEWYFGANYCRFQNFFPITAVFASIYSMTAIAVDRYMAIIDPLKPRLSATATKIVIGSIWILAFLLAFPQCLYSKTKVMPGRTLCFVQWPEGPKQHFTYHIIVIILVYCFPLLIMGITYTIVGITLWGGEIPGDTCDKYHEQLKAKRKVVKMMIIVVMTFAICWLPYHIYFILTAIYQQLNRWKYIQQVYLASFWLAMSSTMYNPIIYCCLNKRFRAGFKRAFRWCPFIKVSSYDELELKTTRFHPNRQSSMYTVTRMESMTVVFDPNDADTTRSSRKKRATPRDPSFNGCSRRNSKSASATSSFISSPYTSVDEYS
Source text: 3. Determination of the Binding Potency of the Test Substances to NK3-Receptors in Vitro
The affinity of test compounds for NK3-receptors can be determined by measuring the ability of the test compound to displace a radiolabeled ligand from its specific binding site.
as §1, with “142801 (osanetant).” for “48968 (saredutant).”, “NK3-receptor” for “NK2-receptor”, “[^3H]-osanetant” for “[^3H]-saredutant”, “(1” for “(0.1”, “osanetant.” for “saredutant.”
as §2, with “(pKi)” for “(pKi).”
as §3

human NK3 receptor [6] = molecular target: T3, human NK3 receptor; experiment: Functional cellular test, Ca2+ measurements using aequorin for NK3 activity; assay type: cell-based; design: expressed in transfected cells; host or cells: cell line co-expressing mitochondrially targeted apoaequorin (CHO according to b76/b77); details: read-out: pA2 data for NK3 (converted)
[7] = read-out: pKi, binding potency to NK1-receptors (converted)
[8] = read-out: pA2 data for NK1 (converted)
[9] = pKi, binding potency to NK1-receptors

T1 sequence (P25103 whole entry): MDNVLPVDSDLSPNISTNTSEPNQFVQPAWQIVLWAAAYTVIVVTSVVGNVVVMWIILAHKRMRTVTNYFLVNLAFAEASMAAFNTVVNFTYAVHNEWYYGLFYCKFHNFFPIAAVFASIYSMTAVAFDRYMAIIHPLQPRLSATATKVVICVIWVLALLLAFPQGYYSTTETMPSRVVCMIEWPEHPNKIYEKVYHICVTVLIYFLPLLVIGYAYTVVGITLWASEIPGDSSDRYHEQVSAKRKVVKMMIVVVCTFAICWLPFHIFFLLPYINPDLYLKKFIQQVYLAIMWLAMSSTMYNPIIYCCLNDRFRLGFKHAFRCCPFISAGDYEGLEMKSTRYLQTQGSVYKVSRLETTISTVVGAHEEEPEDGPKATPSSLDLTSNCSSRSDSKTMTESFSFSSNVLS

Row | Compound | Ki (human NK1-receptor [1]; [7]) [nM] | Kb (human NK1-receptor [2]; [8]) [nM] | Kb (human NK2-receptor [3]) [nM] | Ki (human NK2-receptor [4]) [nM] | Ki (human NK3 receptor [5]) [nM] | Kb (human NK3 receptor [6]) [nM] | Ki (human NK1-receptor [1]; [9]) [nM] | Kb (human NK1-receptor [2]) [nM]
1 | CN(C)C(=O)C1(N2CCCC2)CCN(CCC(CN(C)C(=O)c2cc(C#N)cc3ccccc23)c2ccc(Cl)c(Cl)c2)CC1 (centres unmarked) [compound 98] | 5.01 | 1.58 | 0.501 | 5.01 | 63.1 |  |  | 
2 | CN(C)C(=O)C1(N(C)C)CCN(CCC(CN(C)C(=O)c2ccccc2)c2ccc(Cl)c(Cl)c2)CC1 (centres unmarked) [compound 127] | 79.4 |  |  | 2 |  |  |  | 
3 | CN(C)C(=O)C1(N2CCCC2)CCN(CC[C@H](CN(C)C(=O)c2ccccc2)c2ccc(Cl)c(Cl)c2)CC1 [compound 99, 1-[(3S)-4-[benzoyl(methyl)amino]-3-(3,4-dichlorophenyl)-butyl]-N,N-dimethyl-4-pyrrolidin-1-ylpiperidine-4-carboxamide] |  | 50.1 | 0.251 | 0.631 | 63.1 |  |  | 
4 | CNC(=O)C1(N2CCCCC2)CCN(CCC(CN(C)C(=O)c2cc(C#N)cc3ccccc23)c2ccc(Cl)c(Cl)c2)CC1 (centres unmarked) [compound 93] | 7.94 | 7.94 | 3.98 | 15.8 |  |  |  | 
5 | CN(C)C(=O)C1(N2CCCCC2)CCN(CCC(CN(C)C(=O)c2cccc(Cl)c2)c2ccc(Cl)c(Cl)c2)CC1 (centres unmarked) [compound 80] | 79.4 |  |  | 2 | 79.4 |  |  | 
6 | CCCCN(C(=O)CC)C1CCN(CC[C@H](CN(C)C(=O)c2ccccc2)c2ccc(Cl)c(Cl)c2)CC1 [compound 108, N-[(2S)-4-{4-[butyl(propionyl)amino]piperidin-1-yl}-2-(3,4-dichlorophenyl)butyl]-N-methylbenzamide] |  |  | 1 | 3.98 |  |  | 12.6 | 31.6
7 | CN(C)C(=O)C1(N2CCCCC2)CCN(CCC(CN(C)C(=O)c2cc(C(F)(F)F)cc(C(F)(F)F)c2)c2ccc(Cl)c(Cl)c2)CC1 (centres unmarked) [compound 70] | 63.1 |  |  | 25.1 | 63.1 |  |  | 
8 | CN(C)C(=O)C1(N2CCN(CC[C@H](CN(C)C(=O)c3ccccc3)c3ccc(Cl)c(Cl)c3)CC2)CCCCC1 [compound 96, N-[(2S)-2-(3,4-dichlorophenyl)-4-(4-{1-[(dimethylamino)-carbonyl]cyclohexyl}piperazin-1-yl)butyl]-N-methylbenzamide] |  | 31.6 | 1.26 | 2 |  |  |  | 
9 | CN(C)C(=O)C1(N2CCCCC2)CCN(CCC(CN(C)C(=O)c2cccc(C(F)(F)F)c2)c2ccc(Cl)c(Cl)c2)CC1 (centres unmarked) [compound 83] |  |  | 15.8 | 5.01 | 3.16 |  | 79.4 | 
10 | CN(C)C(=O)C1(N2CCCCC2)CCN(CCC(CN(C)C(=O)Cc2ccc(C(F)(F)F)c(C(F)(F)F)c2)c2ccc(Cl)c(Cl)c2)CC1 (centres unmarked) [compound 56] | 63.1 |  |  | 25.1 | 5.01 |  |  | 
11 | CCC(=O)N(C1CCCCC1)C1CCN(CC[C@H](CN(C)C(=O)c2ccccc2)c2ccc(Cl)c(Cl)c2)CC1 [compound 116, N-[(2S)-4-{4-[cyclohexyl(propionyl)amino]piperidin-1-yl}-2-(3,4-dichlorophenyl)butyl]-N-methyl-benzamide] |  |  | 1.26 | 5.01 |  |  | 79.4 | 31.6

More lines, main results first:

Row | Ki (human NK1-receptor [1]; [7]) [nM] | Kb (human NK1-receptor [2]; [8]) [nM] | Kb (human NK2-receptor [3]) [nM] | Ki (human NK2-receptor [4]) [nM] | Ki (human NK3 receptor [5]) [nM] | Kb (human NK3 receptor [6]) [nM] | Compound | Ki (human NK1-receptor [1]; [9]) [nM] | Kb (human NK1-receptor [2]) [nM]
12 | 79.4 |  |  | 2.51 | 25.1 |  | COc1cccc(C(=O)N(C)CC(CCN2CCC(C(=O)N(C)C)(N3CCCCC3)CC2)c2ccc(Cl)c(Cl)c2)c1 (centres unmarked) [compound 82] |  | 
13 | 12.6 |  |  | 50.1 | 50.1 |  | CN(CC(CCN1CCC(C(=O)N2CCCCC2)(N2CCCCC2)CC1)c1ccc(Cl)c(Cl)c1)C(=O)c1cc(C#N)cc2ccccc12 (centres unmarked) [compound 125] |  | 
14 | 6.31 |  |  | 10 | 39.8 |  | CN(CC(CCN1CCC(C(=O)N2CCCC2)(N2CCCCC2)CC1)c1ccc(Cl)c(Cl)c1)C(=O)c1cc(C#N)cc2ccccc12 (centres unmarked) [compound 126] |  | 
15 |  | 20 | 15.8 | 2 | 20 | 15.8 | CN(C[C@@H](CCN1CCC(C(=O)N2CCCCC2)(N2CCCCC2)CC1)c1ccc(Cl)c(Cl)c1)C(=O)c1ccccc1 [compound 104, N-{(2S)-2-(3,4-dichlorophenyl)-4-[4′-(piperidin-1-ylcarbonyl)-1,4′-bipiperidin-1′-yl]butyl}-N-methylbenzamide] |  | 
16 | 79.4 |  |  | 5.01 |  |  | CNc1ccccc1C(=O)N(C)CC(CCN1CCC(C(=O)N(C)C)(N2CCCCC2)CC1)c1ccc(Cl)c(Cl)c1 (centres unmarked) [compound 24] |  | 
17 |  | 1.26 | 1.26 | 2 | 10 | 12.6 | CN(C)C(=O)C1(N2CCCCC2)CCN(CCC(CN(C)C(=O)C2CCCC2)c2ccc(Cl)c(Cl)c2)CC1 (centres unmarked) [compound 23] |  | 
18 |  |  | 3.16 | 1 | 5.01 | 3.16 | CC(=O)Oc1ccc(C(=O)N(C)C[C@@H](CCN2CCC(C(=O)N(C)C)(N3CCCCC3)CC2)c2ccc(Cl)c(Cl)c2)cc1 [compound 5, 4-({[(2S)-2-(3,4-dichlorophenyl)-4-{4′-[(dimethylamino)-carbonyl]-1,4′-bipiperidin-1′-yl}butyl](methyl)amino}carbonyl)phenyl acetate] |  | 
19 |  |  | 39.8 | 79.4 | 6.31 | 31.6 | CN(C)C(=O)C1(N2CCCCC2)CCN(CCC(CN(C)C(=O)Cc2ccncc2)c2ccc(Cl)c(Cl)c2)CC1 (centres unmarked) [compound 51] |  | 
